Results taken from publication PMC4499186, “Structure of the stationary phase survival protein YuiC from B.subtilis” (BMC Structural Biology, 2015).

Target: T1, YuiC (degraded K32-E218) (Bacillus subtilis, UniProt O32108)
T1 construct: mature protein K32-E218, signal peptide removed, E. coli Rosetta 2 (DE3), His-tag cut by TEV leaving GIDPFT; partially proteolysed at or close to R52; residues 72-217 modelled; domain-swapped dimer, site formed by both chains
T1 sequence (O32108 32-218): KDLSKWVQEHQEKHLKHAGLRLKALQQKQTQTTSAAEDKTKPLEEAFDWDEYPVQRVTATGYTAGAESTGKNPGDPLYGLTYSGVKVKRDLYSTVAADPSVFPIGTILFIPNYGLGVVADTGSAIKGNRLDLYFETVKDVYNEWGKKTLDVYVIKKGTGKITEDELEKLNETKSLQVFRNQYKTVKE
Test: X-ray crystal structure, […] Å
Assay type: binding
Conditions: 5 mM NAG in crystallisation, pH 6.0; bound at -2 site, one per chain

CC(=O)N[C@H]1C(O)O[C@H](CO)[C@@H](O)[C@@H]1O (stereo partly shown) [NAG, N-acetylglucosamine]
X-ray crystal structure, 1.21 Å: Crystallisation of YuiC in the presence of NAG gives a structure with a single
